Measurements taken from patent US20240210412A1, “SULFONYL-TRIAZOLE COMPOUNDS USEFUL AS LIGANDS AND INHIBITORS OF PROSTAGLANDIN REDUCTASE 2” (University of Virginia Patent Foundation, priority 2021, published 2024).

Molecular target: T1, P17066 (Homo sapiens, UniProt P17066)
T1 construct: Probe-modified proteins from the soluble fraction were conjugated to a desthiobiotin-azide tag; endogenous in cells; host or cells: DM93 (SILAC)
Assay: SILAC LC-MS ABPP
Format: cell-based
Settings: 25 μM 2 h, live DM93 cells
Method in brief: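 In DM93 melanoma cells, heavy SILAC cultures take 25 μM SuTEx compound for 2 h at 37 °C while light cultures take DMSO. Both then receive HHS-475 alkyne probe at 100 μM for 2 h; probe-modified peptides are quantified by LC-MS/MS.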

T1 sequence (P17066 whole entry): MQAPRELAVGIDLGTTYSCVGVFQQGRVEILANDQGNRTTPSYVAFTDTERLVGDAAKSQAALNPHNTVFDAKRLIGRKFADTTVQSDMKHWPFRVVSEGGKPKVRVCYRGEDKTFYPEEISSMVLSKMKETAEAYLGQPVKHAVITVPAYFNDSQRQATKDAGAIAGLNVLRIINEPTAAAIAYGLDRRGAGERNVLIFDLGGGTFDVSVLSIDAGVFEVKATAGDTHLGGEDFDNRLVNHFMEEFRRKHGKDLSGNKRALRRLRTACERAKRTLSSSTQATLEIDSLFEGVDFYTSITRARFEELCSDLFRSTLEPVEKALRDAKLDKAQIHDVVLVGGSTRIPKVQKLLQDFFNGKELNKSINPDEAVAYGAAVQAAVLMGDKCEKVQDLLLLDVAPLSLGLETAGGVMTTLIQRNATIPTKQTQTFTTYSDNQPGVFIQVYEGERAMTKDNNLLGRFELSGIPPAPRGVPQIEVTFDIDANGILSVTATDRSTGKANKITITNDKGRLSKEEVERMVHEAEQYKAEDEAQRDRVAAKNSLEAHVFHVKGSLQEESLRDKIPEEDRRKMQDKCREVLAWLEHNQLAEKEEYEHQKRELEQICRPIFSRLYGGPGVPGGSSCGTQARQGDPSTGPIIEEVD

**Q.** With O=C(NC1CCCCC1)c1ccc(S(=O)(=O)n2cncn2)cc1 [HHS-0301, 4-((1H-1,2,4-triazol-1-yl)sulfonyl)-N-cyclohexylbenzamide] as the compound, how does the “liganded tyrosine site 373” value read?
**A.** HHS0301.Y (tyrosine sites that showed >80% reductions (SR >5) in probe labeling in cells treated with compounds (liganded sites))
